Results reported in ChEMBL document CHEMBL1130931, “Synthesis and structure-activity relationships of 7-(2-aminoalkyl)morpholinoquinolones as anti-Helicobacter pylori agents” (1998).
Converted amounts (≈) assume the structure as drawn.

Columns and labels:
Assay type in all cases: functional
Helicobacter pylori = assay: In vitro minimum inhibitory concentration against growth of Helicobacter pylori ATCC 43504.
Gerbillinae [1] = assay: The ratio of the number of Mongolian gerbils in which Helicobacter pylori was not detected to that of Mongolian gerbils tested (percent) was represented as clearance rate at 0.3 mg/kg dose
Gerbillinae [2] = assay: The ratio of the number of Mongolian gerbils in which Helicobacter pylori was not detected to that of Mongolian gerbils tested (percent) was represented as clearance rate at 1 mg/kg dose
Gerbillinae [3] = assay: The ratio of the number of Mongolian gerbils in which Helicobacter pylori was not detected to that of Mongolian gerbils tested (percent) was represented as clearance rate
Gerbillinae [4] = assay: The ratio of the number of Mongolian gerbils in which Helicobacter pylori was not detected to that of Mongolian gerbils tested (percent) was represented as clearance rate at 30 mg/kg dose
Gerbillinae [5] = assay: The ratio of the number of Mongolian gerbils in which Helicobacter pylori was not detected to that of Mongolian gerbils tested (percent) was represented as clearance rate at 10 mg/kg dose
Gerbillinae [6] = assay: The ratio of the number of Mongolian gerbils in which Helicobacter pylori was not detected to that of Mongolian gerbils tested (percent) was represented as clearance rate at 3 mg/kg dose

| SMILES | MIC (Helicobacter pylori) [µg/mL] | other results |
| --- | --- | --- |
| CNCC1CN(c2c(F)cc3c(=O)c(C(=O)O)cn(C4CC4)c3c2F)CCO1 (configuration not stated) | 0.05 (≈ 0.127 µM) |  |
| CN(C)CC1CN(c2cc3c(cc2F)c(=O)c(C(=O)O)cn3C2CC2)CCO1 (configuration not stated) | 0.1 (≈ 0.257 µM) |  |
| NCCC1CN(c2c(F)cc3c(=O)c(C(=O)O)cn(C4CC4)c3c2F)CCO1 (configuration not stated) | 0.2 (≈ 0.508 µM) |  |
| COc1c(N2CCO[C@@H](CN(C)C)C2)c(F)cc2c(=O)c(C(=O)O)cn(C3CC3)c12 | 0.012 (≈ 0.0286 µM) | Ratio (Gerbillinae [1]): 0%; Ratio (Gerbillinae [2]): 100% |
| COc1c(N2CCO[C@H](CN(C)C)C2)c(F)cc2c(=O)c(C(=O)O)cn(C3CC3)c12 | 0.39 (≈ 0.93 µM) |  |
| COc1c(N2CCOC(CN(C)C)C2)c(F)cc2c(=O)c(C(=O)O)cn(C3CC3)c12 (configuration not stated) | 0.025 (≈ 0.0596 µM) |  |
| NCC1CN(c2c(F)cc3c(=O)c(C(=O)O)cn(C4CC4)c3c2F)CCO1 (configuration not stated) | 0.05 (≈ 0.132 µM) | Ratio (Gerbillinae [3]): 80% |
| CCN(CC)CC1CN(c2c(F)cc3c(=O)c(C(=O)O)cn(C4CC4)c3c2F)CCO1 (configuration not stated) | 0.2 (≈ 0.459 µM) |  |
| C[C@@H]1CN(c2c(F)c(N)c3c(=O)c(C(=O)O)cn(C4CC4)c3c2F)C[C@H](C)N1 [SPARFLOXACIN] | 0.2 (≈ 0.51 µM) | Ratio (Gerbillinae [3]): 0% |
| CC1(C)S[C@@H]2[C@H](NC(=O)[C@H](N)c3ccc(O)cc3)C(=O)N2[C@H]1C(=O)O [AMOXICILLIN] | 0.025 (≈ 0.0684 µM) |  |
| CC[C@H]1OC(=O)[C@H](C)[C@@H](O[C@H]2C[C@@](C)(OC)[C@@H](O)[C@H](C)O2)[C@H](C)[C@@H](O[C@@H]2O[C@H](C)C[C@H](N(C)C)[C@H]2O)[C@](C)(OC)C[C@@H](C)C(=O)[C@H](C)[C@@H](O)[C@]1(C)O [CLARITHROMYCIN] | 0.025 (≈ 0.0334 µM) | Ratio (Gerbillinae [4]): 100%; Ratio (Gerbillinae [5]): 0% |
| CCCNCC1CN(c2c(F)cc3c(=O)c(C(=O)O)cn(C4CC4)c3c2F)CCO1 (configuration not stated) | 0.39 (≈ 0.925 µM) |  |
| NC1CCN(c2nc3c(cc2F)c(=O)c(C(=O)O)cn3-c2ccc(F)cc2F)C1 (configuration not stated) [TOSUFLOXACIN] | 0.39 (≈ 0.965 µM) | Ratio (Gerbillinae [3]): 0% |
| C[C@H]1COc2c(N3CCN(C)CC3)c(F)cc3c(=O)c(C(=O)O)cn1c23.C[C@H]1COc2c(N3CCN(C)CC3)c(F)cc3c(=O)c(C(=O)O)cn1c23.O [LEVOFLOXACIN] | 0.2 | Ratio (Gerbillinae [6]): 0%; Ratio (Gerbillinae [5]): 60% |
| CN(C)CC1CN(c2c(F)cc3c(=O)c(C(=O)O)cn(C4CC4)c3c2Cl)CCO1 (configuration not stated) | 0.05 (≈ 0.118 µM) |  |
| CC(=O)NCC1CN(c2c(F)cc3c(=O)c(C(=O)O)cn(C4CC4)c3c2F)CCO1 (configuration not stated) | 0.78 (≈ 1.85 µM) |  |
| CCNCC1CN(c2c(F)cc3c(=O)c(C(=O)O)cn(C4CC4)c3c2F)CCO1 (configuration not stated) | 0.05 (≈ 0.123 µM) |  |
| CN(C)CC1CN(c2c(F)cc3c(=O)c(C(=O)O)cn(C4CC4)c3c2F)CCO1 (configuration not stated) | 0.025 (≈ 0.0614 µM) |  |
